The record followed here is patent US11400106B2, “Methods for inhibiting microbe growth” (priority 2018, dated 2022).

The MIC is the smallest concentration in the dilution series that meets the test's criterion for growth inhibition.

SMILES strings stand for the structures.

Experiment [1] has as its system A. baumannii. The experiment is described as follows: Murine model of systemic A. baumannii infection. The experiment is classed as in vivo, Acinetobacter baumannii. Conditions: mice. The protocol:
Mice were treated two-hours post-infection to allow complete organ occupancy by the injected cells.

Experiment [2] relates to Saccharomyces cerevisiae. The experiment can be described thus: MIC of pentamidine against Saccharomyces cerevisiae in YPD medium. The class given is cell-based. The protocol: Plates were incubated 24 hours and optical density read at 600 nm
Experiment [3] concerns E. coli. The experiment is described as follows: Checkerboard microdilution with sodium bicarbonate against E. coli. The class given is cell-based, Escherichia coli. The protocol: In the following experiments, bacterial cells were cultured in 96-well microtiter plates in cation-adjusted Mueller-Hinton Broth (MHB) for 18 h at 37° C. The main strains used were E. coli (K-12 BW25113) (placed in stationary incubator) and S. aureus (Newman Strain) (incubated at 250 r.p.m). Knockout strains (ΔtolcC and ΔychM) were used from the Keio knockout collection (Baba et al., Construction of Escherichia coli K-12 in-frame, single-gene knockout mutants: the Keio collection. Mol Syst Biol 2, 2006 0008, doi:10.1038/msb4100050 (2006)). For MIC determination and checkerboard analyses, Clinical & Laboratory Standards Institute (CLSI) protocol was used. […] DiSC3 loading of S. aureus cells was performed as previously described (Farha et al., Collapsing the proton motive force to identify synergistic combinations against Staphylococcus aureus. Chemistry & biology 20, 1168-1178, doi:10.1016/j.chembiol.2013.07.006 (2013)). CCCP concentration of 20 μM was used. pH adjustments were made by addition of HCl or NaOH. INT assay and ATP bioluminescence assays were performed as previously described (Farha et al., Collapsing the proton motive force to identify synergistic combinations against Staphylococcus aureus. Chemistry & biology 20, 1168-1178, doi:10.1016/j.chembiol.2013.07.006 (2013)). For chemical-genomic studies, the Keio library was grown overnight in cation-adjusted MHB broth, in 384-well plates. From these, treatment plates (25 mM sodium bicarbonate, or a sterile water control) were inoculated and grown for 15 hours at 37° C., in a stationary incubator. Data was normalized according to Mangat et al (Mangat et al., Rank ordering plate data facilitates data visualization and normalization in high-throughput screening. J Biomol Screen 19, 1314-1320, doi:10.1177/1087057114534298 (2014)), with gene products and GO terms mined from EcoCyc. The GFP promoter library (Keseler et al., EcoCyc: fusing model organism databases with systems biology. Nucleic Acids Res 41, D605-612, doi:10.1093/nar/gks1027 (2013)) was grown for 18 hours at ambient temperature with the same inoculation strategy as with the Keio collection. The analysis pipeline of Zaslaver et al (Zaslaver et al., A comprehensive library of fluorescent transcriptional reporters for Escherichia coli. Nat Methods 3, 623-628, doi:10.1038/nmeth895 (2006)) was used to generate maps of promoter activity, from which lists of promoters with increased or decreased activity were compiled.
The effect of sodium bicarbonate on the activity of various antibacterial agents was investigated. Clinical isolates of various bacteria were obtained from the American Type Culture Collection (“ATCC”) and the International Health Management Associates (“IHMA”). Fractional inhibitory concentration indices (FICIs) were determined by setting up standard checkerboard broth microdilution assays in 96-well microtiter plates with serially diluted 8 (or 10) concentrations of each drug (sodium bicarbonate and the antibacterial agent). The protocol for checkerboard analyses was based on the CLSI guidelines. Plates were incubated at 37° C. for 18 hours, and optical density was read at 600 nm. At least 3 replicates were done for each query compound.
The FIC index (FICI) is the sum of the two FICs. Chemical-chemical interactions with ΣFIC of less or equal to 0.5 were deemed synergistic.
As validation, three of the antibiotic agents were further tested with checkerboard analyses. Checkerboard broth microdilution assays were set up in 96-well microtiter plates with serially diluted 8 (or 10) concentrations of each compound (sodium bicarbonate and the antibiotic). The protocol for checkerboard analyses was based on the CLSI guidelines. Plates were incubated at 37° C. for 18 hours, and optical density was read at 600 nm. At least 3 replicates were done for each query compound.

Experiment [4] has as its system E. coli MC1061. The experiment is described as follows: Membrane potential dissipation, DiSC3(5) fluorescence spectroscopy. The experiment is classed as cell-based, Escherichia coli. To be noted: E. coli grown in standard growth media or supplemented with 25 mM sodium bicarbonate; compound at MIC.
Experimental: E. coli MC1061 cells were washed twice and suspended in a buffer containing 20 mM glucose and 5 mM HEPES (pH 7.2). Final resuspension was diluted to an optical density at 600 nm of 0.085. DiSC3(5) was added at a final concentration of 1 and the dye was left to stabilize (1 hr at 37° C.). Compounds were then injected at concentrations equivalent to their MIC. Fluorescent traces were measured in a fluorimeter (Photon Technology International) at the excitation and emission wavelengths of 622 and 660 nm, respectively.
Briefly, due to the potential gradient, the dye is taken up by bacteria and accumulation in the membrane leads to a decrease in fluorescence intensity due to self-quenching. A subsequent increase in fluorescence intensity is observed only if the dye is displaced into the solution as a result of dissipation of the membrane potential.
Experiment [5] relates to A. baumannii. The experiment is described as follows: Superficial skin infection model, tape-stripped mice, A. baumannii. Conditions: 0.5% pentamidine topical, tissue collected 25 hr post-infection. The class given is in vivo, Acinetobacter baumannii. How it is done:
(§1) In this model, an infection is established by disrupting the skin barrier through partial removal of the epidermal layer by stripping with adhesive tape and with subsequent application of the pathogen. Tape-stripped mice infected with 4×10^6 CFU/mL A. baumannii (FIG. 4A) or 4×10^6 CFU/mL methicillin-resistant Staphylococcus aureus (MRSA) USA-300 (FIG. 4B). […] This treatment regime was also conducted for the Vehicle (1.9% Boric Acid, pH 7) as a control (n=4). Tissue samples were collected at 25 hr post-infection (FIG. 4A) and 28 hr post-infection (FIG. 4B). […] (FIG. 5).

For experiment [6], the system named is methicillin-resistant Staphylococcus aureus (MRSA) USA-300. The experiment can be described thus: Superficial skin infection model, tape-stripped mice, MRSA USA-300. The experiment is classed as in vivo. The protocol: as §1
Experiment [7] concerns Gram-negative organisms.
In experiment [8] the test system is Gram-positive organisms.

The molecule `N=C(N)c1ccc(OCCCCCOc2ccc(C(=N)N)cc2)cc1` [pentamidine] showed a rescue of animals in experiment [1] (50 mg/kg pentamidine IP, single dose 2 h post-infection, in the absence of novobiocin) of 80%. Also, the “A. baumannii organ load (e.g., spleen) decrease” value in experiment [1] (pentamidine alone) is “seven”. In addition, the results for the minimum inhibitory concentration (MIC) in experiment [2] (25 mM sodium bicarbonate), in experiment [2] (50 mM sodium bicarbonate) and in experiment [2] (no sodium bicarbonate) were 4 mg/L, 2 mg/L and 256 mg/L, respectively. The “interaction with sodium bicarbonate (checkerboard)” value in experiment [3] is reported as “synergistic interaction”. Moreover, the “effect on membrane potential” value in experiment [4] is recorded as “dissipated the membrane potential”. Besides, the “reduction in CFU/mL compared to vehicle-treated mice” value in experiment [5] is recorded as 4 log. Further, the “reduction in CFU/mL” value in experiment [6] (0.5% pentamidine topical, tissue collected 28 hr post-infection) came out at 5 log. Further, the “effect of addition of bicarbonate (50 mM) on antibacterial efficacy in clearing an MRSA infection” value in experiment [6] (topical 0.5% aqueous pentamidine solution with or without bicarbonate (50 mM)) was “increased the antibacterial efficacy”. Also, the results for the “potentiation of antibacterial activity in the presence of bicarbonate, on average” value in experiment [7] and in experiment [8] were 40 fold and 50 fold, respectively.
